Article PMC7206119, “RIP1 inhibition blocks inflammatory diseases but not tumor growth or metastases” (Cell Death and Differentiation, 2019)

Key:
Test in all cases: biochemical
Set-up in all cases: Thermo Fisher SelectScreen kinase panel: Z'-LYTE and Adapta activity, LanthaScreen binding
AKT2 = AKT2 (Homo sapiens, UniProt P31751)
Procedure: (§1) 5 88 GNE684 was tested in Thermo Fisher Scientific SelectScreen assay (Madison, WI) 89 against 221 representative kinases at a concentration of 10 µM, which is 476-fold greater than the Ki app 90 for GNE684 against human RIP1 in the RIP1 enzyme 91 assay. The kinase assays were carried out using Z'-LYTE and Adapta activity and 92 LanthaScreen binding assays (Thermo Fisher Scientific, Madison WI) following 93 protocols developed and performed by Thermo Fisher Scientific 94 (https://www.thermofisher.com/us/en/home/products-and-services/services/custom-95 services/screening-and-profiling-services/selectscreen-profiling-service/selectscreen-96 kinase-profiling-service.html). 97 GNE684 was also tested against 468 kinases in the KINOMEscan scanMAX kinase 98 binding assay panel at a concentration of 10 µM following protocols developed and 99 performed by DiscoverX (http://www.discoverx.com/kinase_profiling).

BRAF = BRAF (Homo sapiens, UniProt P15056)
Procedure: as §1

CDK7/cyclinH = CDK7/cyclinH (Homo sapiens, UniProt P50613)
Chain of CDK7/cyclinH (P50613 whole entry): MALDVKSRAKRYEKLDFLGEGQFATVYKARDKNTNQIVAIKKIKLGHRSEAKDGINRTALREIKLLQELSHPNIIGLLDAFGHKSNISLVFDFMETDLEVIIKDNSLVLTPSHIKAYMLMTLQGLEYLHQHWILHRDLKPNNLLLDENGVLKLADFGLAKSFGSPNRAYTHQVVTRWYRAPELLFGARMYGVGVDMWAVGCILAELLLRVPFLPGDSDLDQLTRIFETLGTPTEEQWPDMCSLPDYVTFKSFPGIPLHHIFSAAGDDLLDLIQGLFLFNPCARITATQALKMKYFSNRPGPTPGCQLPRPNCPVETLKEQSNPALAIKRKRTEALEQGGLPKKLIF
Procedure: as §1

CHK1 = target: T1, CHK1 (Homo sapiens, UniProt O14757)
T1 construct: gene CHEK1
Procedure: as §1

CK2_alpha1 = target: T2, CK2_alpha1 (Homo sapiens, UniProt P68400)
T2 construct: gene CSNK2A1
T2 sequence (P68400 whole entry): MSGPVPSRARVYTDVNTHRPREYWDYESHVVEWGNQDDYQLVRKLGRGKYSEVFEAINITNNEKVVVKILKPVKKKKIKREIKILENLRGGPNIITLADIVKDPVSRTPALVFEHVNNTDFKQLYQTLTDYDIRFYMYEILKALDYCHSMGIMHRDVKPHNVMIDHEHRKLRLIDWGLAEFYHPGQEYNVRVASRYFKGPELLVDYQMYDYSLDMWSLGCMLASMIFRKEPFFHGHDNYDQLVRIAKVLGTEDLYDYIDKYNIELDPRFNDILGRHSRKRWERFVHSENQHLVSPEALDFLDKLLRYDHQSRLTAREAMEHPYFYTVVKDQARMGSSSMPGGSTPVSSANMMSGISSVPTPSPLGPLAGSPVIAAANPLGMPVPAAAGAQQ
Procedure: as §1

DYRK4 = DYRK4 (Homo sapiens, UniProt Q9NR20)
Procedure: as §1

FGR = FGR (Homo sapiens, UniProt P09769)
Chain of FGR (P09769 whole entry): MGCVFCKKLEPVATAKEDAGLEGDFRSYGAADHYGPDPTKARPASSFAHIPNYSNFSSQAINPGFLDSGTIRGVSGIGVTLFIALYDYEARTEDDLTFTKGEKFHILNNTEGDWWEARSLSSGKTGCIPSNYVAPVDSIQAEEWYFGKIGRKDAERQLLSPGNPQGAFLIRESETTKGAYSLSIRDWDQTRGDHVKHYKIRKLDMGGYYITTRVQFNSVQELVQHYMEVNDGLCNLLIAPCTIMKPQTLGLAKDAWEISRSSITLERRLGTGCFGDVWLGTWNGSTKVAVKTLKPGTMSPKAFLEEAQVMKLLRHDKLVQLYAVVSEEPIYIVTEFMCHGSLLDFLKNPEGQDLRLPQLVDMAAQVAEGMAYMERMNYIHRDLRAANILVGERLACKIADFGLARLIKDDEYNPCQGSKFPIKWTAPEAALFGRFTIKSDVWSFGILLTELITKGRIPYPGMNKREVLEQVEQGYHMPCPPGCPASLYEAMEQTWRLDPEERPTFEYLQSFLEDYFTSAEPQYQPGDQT
Procedure: as §1

GRK3 = GRK3 (Homo sapiens, UniProt P35626)
Procedure: as §1

HCK = HCK (Homo sapiens, UniProt P08631)
Procedure: as §1

IKK-epsilon = target: T3, IKK-epsilon (Homo sapiens, UniProt Q14164)
T3 construct: gene IKBKE
T3 sequence (Q14164 whole entry): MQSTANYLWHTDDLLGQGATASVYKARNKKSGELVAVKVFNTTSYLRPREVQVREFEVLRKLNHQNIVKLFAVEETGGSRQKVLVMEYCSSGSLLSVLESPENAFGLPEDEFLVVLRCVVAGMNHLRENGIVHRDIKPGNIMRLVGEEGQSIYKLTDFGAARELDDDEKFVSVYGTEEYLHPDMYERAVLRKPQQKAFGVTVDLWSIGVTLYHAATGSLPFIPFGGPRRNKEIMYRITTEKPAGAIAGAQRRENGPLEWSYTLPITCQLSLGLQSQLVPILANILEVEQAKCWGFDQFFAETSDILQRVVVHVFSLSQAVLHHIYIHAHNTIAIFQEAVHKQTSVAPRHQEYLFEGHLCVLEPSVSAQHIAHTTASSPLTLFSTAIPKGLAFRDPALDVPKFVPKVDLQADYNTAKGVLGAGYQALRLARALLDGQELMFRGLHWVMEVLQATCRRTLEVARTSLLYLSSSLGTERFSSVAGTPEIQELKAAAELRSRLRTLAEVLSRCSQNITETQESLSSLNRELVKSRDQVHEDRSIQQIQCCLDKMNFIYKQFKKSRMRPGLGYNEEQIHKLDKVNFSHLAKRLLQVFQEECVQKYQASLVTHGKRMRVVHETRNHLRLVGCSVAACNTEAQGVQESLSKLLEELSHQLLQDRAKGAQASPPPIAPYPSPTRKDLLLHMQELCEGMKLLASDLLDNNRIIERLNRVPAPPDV
Procedure: as §1

IRR = target: T4, IRR (Homo sapiens, UniProt P14616)
T4 construct: gene INSRR
Procedure: as §1

JNK1_alpha1 = target: T5, JNK1_alpha1 (Homo sapiens, UniProt P45983)
T5 construct: gene MAPK8; isoform alpha1
Procedure: as §1

JNK3 = target: T6, JNK3 (Homo sapiens, UniProt P53779)
T6 construct: gene MAPK10
Procedure: as §1

KIT = KIT (Homo sapiens, UniProt P10721)
Procedure: as §1

LIMK1 = LIMK1 (Homo sapiens, UniProt P53667)
Procedure: as §1

MARK1 = MARK1 (Homo sapiens, UniProt Q9P0L2)
Procedure: as §1

PAK4 = PAK4 (Homo sapiens, UniProt O96013)
Chain of PAK4 (O96013 whole entry): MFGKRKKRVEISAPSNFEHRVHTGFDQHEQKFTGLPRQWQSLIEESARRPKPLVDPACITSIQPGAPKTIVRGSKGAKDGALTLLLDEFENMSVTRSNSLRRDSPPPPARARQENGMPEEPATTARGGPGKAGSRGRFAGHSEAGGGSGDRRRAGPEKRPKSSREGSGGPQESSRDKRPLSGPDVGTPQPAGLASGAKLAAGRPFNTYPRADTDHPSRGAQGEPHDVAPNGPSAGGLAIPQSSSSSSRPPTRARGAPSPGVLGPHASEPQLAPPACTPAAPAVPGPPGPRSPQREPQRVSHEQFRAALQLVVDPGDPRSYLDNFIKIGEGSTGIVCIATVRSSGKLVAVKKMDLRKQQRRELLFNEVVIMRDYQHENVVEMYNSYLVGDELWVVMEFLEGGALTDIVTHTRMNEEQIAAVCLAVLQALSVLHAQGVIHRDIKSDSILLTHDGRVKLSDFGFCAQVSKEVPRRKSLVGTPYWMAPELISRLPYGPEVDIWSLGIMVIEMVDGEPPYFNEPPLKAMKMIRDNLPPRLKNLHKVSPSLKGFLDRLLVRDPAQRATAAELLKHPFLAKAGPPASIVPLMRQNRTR
Procedure: as §1

PASK = PASK (Homo sapiens, UniProt Q96RG2)
Chain of PASK (Q96RG2 whole entry): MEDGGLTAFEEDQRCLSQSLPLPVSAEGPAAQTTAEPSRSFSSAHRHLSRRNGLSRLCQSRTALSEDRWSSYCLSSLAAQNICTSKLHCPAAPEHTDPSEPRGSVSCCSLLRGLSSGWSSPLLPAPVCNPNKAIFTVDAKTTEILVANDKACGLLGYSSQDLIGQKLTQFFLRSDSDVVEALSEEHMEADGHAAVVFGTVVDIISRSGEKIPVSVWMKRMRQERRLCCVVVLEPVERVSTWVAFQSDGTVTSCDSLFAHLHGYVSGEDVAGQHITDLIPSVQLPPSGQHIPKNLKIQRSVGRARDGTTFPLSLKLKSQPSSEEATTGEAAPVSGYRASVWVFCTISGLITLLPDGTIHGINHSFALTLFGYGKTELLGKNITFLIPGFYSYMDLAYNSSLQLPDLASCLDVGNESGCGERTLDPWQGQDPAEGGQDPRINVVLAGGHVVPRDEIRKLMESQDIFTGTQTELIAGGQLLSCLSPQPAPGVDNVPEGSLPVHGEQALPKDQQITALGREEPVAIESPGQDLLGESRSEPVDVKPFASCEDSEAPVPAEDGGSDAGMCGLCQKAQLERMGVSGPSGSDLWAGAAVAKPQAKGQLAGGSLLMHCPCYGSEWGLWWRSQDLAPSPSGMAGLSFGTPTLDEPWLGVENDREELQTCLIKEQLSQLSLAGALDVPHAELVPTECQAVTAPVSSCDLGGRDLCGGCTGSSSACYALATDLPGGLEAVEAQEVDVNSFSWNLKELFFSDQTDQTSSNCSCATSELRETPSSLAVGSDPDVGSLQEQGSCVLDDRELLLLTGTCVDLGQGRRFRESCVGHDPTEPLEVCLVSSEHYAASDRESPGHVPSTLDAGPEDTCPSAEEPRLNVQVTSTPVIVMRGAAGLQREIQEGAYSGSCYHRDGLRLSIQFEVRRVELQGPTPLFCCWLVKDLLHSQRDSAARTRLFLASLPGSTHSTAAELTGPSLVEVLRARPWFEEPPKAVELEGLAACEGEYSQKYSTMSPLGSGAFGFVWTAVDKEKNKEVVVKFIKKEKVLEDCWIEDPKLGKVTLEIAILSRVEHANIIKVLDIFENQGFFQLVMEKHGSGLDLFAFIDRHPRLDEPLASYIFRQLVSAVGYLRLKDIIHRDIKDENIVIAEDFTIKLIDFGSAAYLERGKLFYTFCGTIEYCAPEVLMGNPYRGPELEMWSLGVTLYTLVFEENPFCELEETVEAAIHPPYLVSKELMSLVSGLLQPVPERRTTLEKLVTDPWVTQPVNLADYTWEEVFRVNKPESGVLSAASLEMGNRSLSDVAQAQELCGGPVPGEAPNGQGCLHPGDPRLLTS
Procedure: as §1

PKC_theta = target: T7, PKC_theta (Homo sapiens, UniProt Q04759)
T7 construct: gene PRKCQ
Procedure: as §1

PRK1 = target: T8, PRK1 (Homo sapiens, UniProt Q16512)
T8 construct: gene PKN1
Procedure: as §1

RAF1(Y340D,Y341D) = RAF1(Y340D,Y341D) (Homo sapiens, UniProt P04049, Y340D/Y341D)
Chain of RAF1(Y340D,Y341D) (P04049 whole entry Y340D/Y341D): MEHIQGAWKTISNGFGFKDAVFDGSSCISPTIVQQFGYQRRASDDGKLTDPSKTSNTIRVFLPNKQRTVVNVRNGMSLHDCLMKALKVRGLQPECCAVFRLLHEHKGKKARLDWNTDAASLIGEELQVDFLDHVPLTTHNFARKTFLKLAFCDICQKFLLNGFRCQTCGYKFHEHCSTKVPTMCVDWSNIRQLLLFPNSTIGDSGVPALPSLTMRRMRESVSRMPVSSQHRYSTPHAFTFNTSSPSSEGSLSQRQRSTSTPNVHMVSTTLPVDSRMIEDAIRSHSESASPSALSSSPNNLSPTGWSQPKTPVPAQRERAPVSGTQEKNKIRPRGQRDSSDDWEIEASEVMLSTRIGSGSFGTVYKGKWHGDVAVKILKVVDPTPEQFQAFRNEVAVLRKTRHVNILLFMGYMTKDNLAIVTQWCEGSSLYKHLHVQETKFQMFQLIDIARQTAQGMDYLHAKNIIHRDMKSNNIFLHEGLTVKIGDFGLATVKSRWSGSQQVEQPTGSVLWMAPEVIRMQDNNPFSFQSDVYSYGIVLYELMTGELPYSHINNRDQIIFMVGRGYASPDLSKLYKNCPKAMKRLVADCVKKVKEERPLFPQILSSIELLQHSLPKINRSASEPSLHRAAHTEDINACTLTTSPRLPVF
Procedure: as §1

Ron = target: T9, Ron (Homo sapiens, UniProt Q04912)
T9 construct: gene MST1R
Procedure: as §1

SYK = SYK (Homo sapiens, UniProt P43405)
Procedure: as §1

Chain of AKT2 (P31751 whole entry): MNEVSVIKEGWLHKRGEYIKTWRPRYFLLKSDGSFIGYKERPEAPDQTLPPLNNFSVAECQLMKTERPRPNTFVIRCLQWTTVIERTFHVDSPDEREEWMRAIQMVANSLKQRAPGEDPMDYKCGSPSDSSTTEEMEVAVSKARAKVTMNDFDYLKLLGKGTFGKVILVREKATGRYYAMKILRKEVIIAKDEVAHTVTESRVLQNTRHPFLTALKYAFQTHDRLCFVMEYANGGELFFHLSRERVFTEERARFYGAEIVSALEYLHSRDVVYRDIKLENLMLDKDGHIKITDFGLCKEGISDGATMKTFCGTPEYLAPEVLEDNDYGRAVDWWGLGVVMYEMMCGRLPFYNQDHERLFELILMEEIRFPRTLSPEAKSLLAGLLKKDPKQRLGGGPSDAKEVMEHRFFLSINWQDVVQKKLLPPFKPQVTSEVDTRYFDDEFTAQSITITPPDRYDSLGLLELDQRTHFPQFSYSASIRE

COc1cc2c(cn1)N(C)C(=O)[C@@H](NC(=O)c1nc3n(n1)[C@H](c1ccccc1)CC3)CC2 [GNE684, (S)-N-((S)-7-methoxy-1-methyl-2-oxo-2,3,4,5-tetrahydro-1H-pyrido[3,4-b]azepin-3-yl)-5-phenyl-6,7-dihydro-5H-pyrrolo[1,2-b][1,2,4]triazole-2-carboxamide]
inhibition at 10 µM (AKT2): 4.5%
inhibition at 10 µM (BRAF): 6.5%
inhibition at 10 µM (CDK7/cyclinH): 5%
inhibition at 10 µM (CHK1): -7%
inhibition at 10 µM (CK2_alpha1): 3.5%
inhibition at 10 µM (DYRK4): 2%
inhibition at 10 µM (FGR): 8%
inhibition at 10 µM (GRK3): 2.5%
inhibition at 10 µM (HCK): 5%
inhibition at 10 µM (IKK-epsilon): 3%
inhibition at 10 µM (IRR): 12%
inhibition at 10 µM (JNK1_alpha1): -5.5%
inhibition at 10 µM (JNK3): 3%
inhibition at 10 µM (KIT): 3%
inhibition at 10 µM (LIMK1): 8.5%
inhibition at 10 µM (MARK1): 6.5%
inhibition at 10 µM (PAK4): 14%
inhibition at 10 µM (PASK): 4.5%
inhibition at 10 µM (PKC_theta): -5%
inhibition at 10 µM (PRK1): 2.5%
inhibition at 10 µM (RAF1(Y340D,Y341D)): -2%
inhibition at 10 µM (Ron): 4.5%
inhibition at 10 µM (SYK): -1.5%
